Experimental data from ChEMBL document CHEMBL4152253, “New developments in non-quinolone-based antibiotics for the inhibiton of bacterial gyrase and topoisomerase IV” (Eur J Med Chem, 2018).

Assays:
[1] = biological target: DNA gyrase (Staphylococcus aureus, UniProt P0A0K8+P20831); assay: Inhibition of Staphylococcus aureus DNA gyrase; format: protein-complex assay
[2] = biological target: DNA gyrase subunit B (Staphylococcus aureus, UniProt P0A0K8); assay: Inhibition of Staphylococcus aureus GyrB
Sequence of DNA gyrase subunit B (P0A0K8 whole entry): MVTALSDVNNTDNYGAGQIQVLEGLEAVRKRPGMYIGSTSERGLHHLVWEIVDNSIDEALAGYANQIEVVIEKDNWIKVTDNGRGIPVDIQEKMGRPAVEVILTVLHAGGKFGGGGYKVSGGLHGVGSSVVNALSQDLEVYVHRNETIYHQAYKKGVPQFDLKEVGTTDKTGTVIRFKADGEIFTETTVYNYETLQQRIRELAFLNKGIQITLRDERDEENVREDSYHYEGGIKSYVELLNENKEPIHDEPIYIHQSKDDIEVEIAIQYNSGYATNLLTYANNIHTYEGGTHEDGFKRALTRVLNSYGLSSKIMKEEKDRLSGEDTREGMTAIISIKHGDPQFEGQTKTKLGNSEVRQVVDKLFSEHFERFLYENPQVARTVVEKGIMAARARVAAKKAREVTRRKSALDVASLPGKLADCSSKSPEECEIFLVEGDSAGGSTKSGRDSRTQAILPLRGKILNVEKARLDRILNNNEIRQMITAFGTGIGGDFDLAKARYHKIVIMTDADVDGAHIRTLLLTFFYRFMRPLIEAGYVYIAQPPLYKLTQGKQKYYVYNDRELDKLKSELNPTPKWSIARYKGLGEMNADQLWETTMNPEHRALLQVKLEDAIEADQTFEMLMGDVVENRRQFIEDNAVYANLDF

Sequence of DNA gyrase (P0A0K8 whole entry): as above
Sequence of DNA gyrase (P20831 whole entry): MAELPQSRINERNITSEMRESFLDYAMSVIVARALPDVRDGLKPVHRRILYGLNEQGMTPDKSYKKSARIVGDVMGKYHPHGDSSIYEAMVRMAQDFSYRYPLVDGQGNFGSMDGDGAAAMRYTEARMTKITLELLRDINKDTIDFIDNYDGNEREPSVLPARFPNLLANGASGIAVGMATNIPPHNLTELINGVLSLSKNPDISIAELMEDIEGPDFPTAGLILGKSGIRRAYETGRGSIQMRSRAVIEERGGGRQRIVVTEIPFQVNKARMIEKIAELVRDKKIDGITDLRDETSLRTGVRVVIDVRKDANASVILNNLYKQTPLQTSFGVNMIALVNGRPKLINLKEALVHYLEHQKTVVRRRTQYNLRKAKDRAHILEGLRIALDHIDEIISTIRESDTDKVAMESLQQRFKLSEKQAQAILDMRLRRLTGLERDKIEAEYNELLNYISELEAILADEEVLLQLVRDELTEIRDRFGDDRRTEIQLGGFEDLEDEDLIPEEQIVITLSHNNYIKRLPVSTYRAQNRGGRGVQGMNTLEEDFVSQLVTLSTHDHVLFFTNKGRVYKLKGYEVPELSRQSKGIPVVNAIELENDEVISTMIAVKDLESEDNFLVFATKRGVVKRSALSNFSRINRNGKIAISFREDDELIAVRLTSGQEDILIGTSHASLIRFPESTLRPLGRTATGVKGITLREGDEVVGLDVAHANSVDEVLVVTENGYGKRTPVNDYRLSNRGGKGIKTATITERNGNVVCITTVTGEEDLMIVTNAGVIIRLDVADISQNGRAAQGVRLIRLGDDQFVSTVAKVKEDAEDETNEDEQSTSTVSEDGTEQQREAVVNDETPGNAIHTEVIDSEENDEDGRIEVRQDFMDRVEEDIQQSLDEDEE

| SMILES | IC50 [1] [µM] | IC50 [2] [µM] |
| --- | --- | --- |
| Cc1occc1C(=O)NNC(=S)NC(=O)c1ccccc1 | 15 | – |
| C=C1CC[C@@H](O[C@H]2C[C@@](O)([C@H](C)NC(=O)c3[nH]c(C)c(Cl)c3Cl)[C@H](O)[C@@H](C)O2)[C@@H]2C=C[C@H](C)C(/C(O)=C3\C(=O)[C@H](C(C)C)N([C@H]4O[C@H](C)[C@H](OC(N)=O)[C@H](OC(C)=O)[C@@H]4OC)C3=O)[C@@H]12 (some centres not stated) [KIBDELOMYCIN] | – | 0.009 |
